Here are results for 79 compounds from PMC12040169 (PLOS Biology, 2025).

The data set is described as follows: in vitro. The following applies: human, hela cells, % viability.

By viability is commonly meant a read-out of living cells in per cent, often relative to untreated cells. Regarding `OCCOc1ccccc1-c1nnco1` [CBK001972], the viability at 28.5 h, 10 µM was 92.6%.

With `Cc1cccc(CCNC(=O)c2cccn(CC(=O)N(C)C3CCCCC3)c2=O)c1` [CBK286113], the viability at 28.5 h, 10 µM worked out at 104%.

For the compound `COc1ccc(-c2cc([C@H]3CN4CC[C@H]3C[C@@H]4CNC(=O)c3ccco3)n(C)n2)cc1` [CBK289099], the viability at 28.5 h, 10 µM turned out to be 113%.

In the case of `S=c1n(CN2CCC(c3ccccc3)CC2)nc(Cc2ccccc2)n1-c1ccccc1` [CBK265037], the viability at 28.5 h, 10 µM came out at 95.2%.

For the compound `CCn1c(SCC(=O)Nc2ccccc2OC)nnc1-c1ccc(N)cc1` [CBK265859], the viability at 28.5 h, 10 µM worked out at 111%.

On to `FC(F)(F)c1cccc(CN2CCC(N3CCCCC3)CC2)c1` [CBK261855], for which the viability at 28.5 h, 10 µM was 90.1%.

On to `Cc1cccc(C)c1OCC(=O)NC(C)C(=O)O` (stereo not shown) [CBK287185], for which the viability at 28.5 h, 10 µM stood at 86.8%.

For `O=C(c1ccccc1F)N1C2CCC1CC(O)(c1cccnc1F)C2` (stereo not shown) [CBK284420], the viability at 28.5 h, 10 µM stood at 98.4%.

Consider `O=C(Nc1nnc(COc2ccccc2)s1)c1cccc2ccccc12` [CBK300487], for which the viability at 28.5 h, 10 µM worked out at 97.6%.

As for `CC(=O)OC(Cn1c2ccccc2c2ccccc21)Cn1c2ccccc2c2ccccc21` [CBK262307], the viability at 28.5 h, 10 µM was 104%.

For `COc1ccc(-c2cccc(Nc3cc(OC)c(OC)c(OC)c3)n2)cc1OC` [CBK037634], the viability at 28.5 h, 10 µM came to 55.7%.

On to `Cc1nn(CC(=O)N2CCCCC2C)c(=O)c2cc3sccc3n12` (stereo not shown) [CBK284141], for which the viability at 28.5 h, 10 µM turned out to be 70%.

Turning to `CN(C)CCN(Cc1ccccc1)Cc1ccc(C(F)(F)F)cc1` [CBK261927], the viability at 28.5 h, 10 µM worked out at 120%.

As for `COc1cc([N+](=O)[O-])ccc1NC(=O)C1CC(Cl)=CCC1C(=O)O` (stereo not shown) [CBK264956], the viability at 28.5 h, 10 µM was 88.8%.

Take `Nc1cccc2c1C(=O)N(c1ccccc1C(=O)O)C2=O` [CBK287220]: the viability at 28.5 h, 10 µM was found to be 94%.

Take `CSCCN1CCC(Oc2nccnc2OCCN2CCOCC2)CC1` [CBK082935]: the viability at 28.5 h, 10 µM amounted to 92.9%.

`c1cnc(N2CCN(Cc3ccc4c(c3)OCO4)CC2)c(OC2CCCCC2)n1` [CBK082833T]: the viability at 28.5 h, 10 µM was determined as 95.6%.

Turning to `CSc1nsc(SCc2cnc(C)nc2N)n1` [CBK268337], the viability at 28.5 h, 10 µM worked out at 105%.

Take `O=C1NC2(CCOCC2)C(=O)N1Cc1ncc(-c2cccs2)o1` [CBK304187]: the viability at 28.5 h, 10 µM is 92%.

Take `COc1ccccc1-c1nccnc1OCCn1cccc1` [CBK106820]: the viability at 28.5 h, 10 µM was 91.3%.

For `CC1(C(=O)N2CCc3onc(-c4ccccc4F)c3C2)CCCO1` (stereo not shown) [CBK282660], the viability at 28.5 h, 10 µM stood at 88.1%.

Turning to `O=C(O)c1cnc(Cl)c(Br)c1` [CBK026874], the viability at 28.5 h, 10 µM came to 83.7%.

Turning to `COC[C@@H]1OC[C@@]2(C)C3CC[C@@H](O)[C@@H](CC(=O)NCc4ccccc4)[C@]3(C)CC[C@H]2O1` (stereo partly shown) [CBK289574], the viability at 28.5 h, 10 µM was 79.1%.

With `O=C(NCCc1c[nH]cn1)N1CCN(c2ccc(F)cc2)CC1` [CBK156394], the viability at 28.5 h, 10 µM worked out at 85.1%.

`CCN1C(=O)C2(CC(=O)N(CCc3scnc3C)C2=O)c2cc(C)ccc21` (stereo not shown) [CBK075217]: the viability at 28.5 h, 10 µM was determined as 96.8%.

On to `CC(C)(O)c1cn(C2CN(C(=O)c3sccc3-c3ccccc3)C2)nn1` [CBK305442], for which the viability at 28.5 h, 10 µM came to 87.6%.

As to `O=C(CCC(=O)c1ccc2c(c1)OCCO2)OCC(=O)c1ccc(F)cc1` [CBK264679], the viability at 28.5 h, 10 µM is 103%.

Take `NC1CCCN(C(=O)c2ccc(Oc3cccc(Br)c3)nc2)C1` (stereo not shown) [CBK304747]: the viability at 28.5 h, 10 µM worked out at 92.6%.

With `Cc1ccc(C(=O)N2CCN(Cc3ccccc3)CC2)cn1` [CBK200170], the viability at 28.5 h, 10 µM was determined as 93.6%.

For the compound `Cc1cc(N2CCCC(N(C)S(=O)(=O)c3cccc(F)c3)CC2)nc(C)n1` (stereo not shown) [CBK285935], the viability at 28.5 h, 10 µM is 85.5%.

`O=C(/C(=C\c1ccc([N+](=O)[O-])cc1)n1cncn1)c1ccc(Cl)cc1Cl` [CBK262145]: the viability at 28.5 h, 10 µM was determined as 90.3%.

Regarding `CCOc1ccc(C(=O)Nc2ccc(-c3nc4ccccc4s3)cc2C)cc1[N+](=O)[O-]` [CBK269005], the viability at 28.5 h, 10 µM was 90.5%.

Regarding `O=C(O)COc1ccccc1/C=C1\C(=O)NC(=O)N(c2ccc(O)cc2)C1=O` [CBK265436], the viability at 28.5 h, 10 µM (bulk resorufin, single well) came out at 85.2%.

For the compound `O=C(CN1C(=O)COc2ccccc21)NC1CC1` [CBK270261], the viability at 28.5 h, 10 µM amounted to 96%.

In the case of `CC1CC(Nc2ccccc2)c2ccccc2N1` (stereo not shown) [CBK057947], the viability at 28.5 h, 10 µM was determined as 86.6%.

On to `Cc1cc(-c2nnc3n2N=C(c2ccccc2)CS3)n[nH]1` [CBK287944], for which the viability at 28.5 h, 10 µM is 98.3%.

Regarding `O=C(c1ccco1)N1CCN(c2ccc(-c3cccc4cccnc34)cn2)CC1` [CBK037640], the viability at 28.5 h, 10 µM is 72.4%.

`Cc1ccc(N(CC(O)CNC23CC4CC(CC(C4)C2)C3)S(=O)(=O)c2ccccc2)cc1` (stereo not shown) [CBK264741]: the viability at 28.5 h, 10 µM is 110%.

On to `COc1ccc(-c2cncc(N(C)CCN(C)C)n2)cc1` [CBK037832], for which the viability at 28.5 h, 10 µM turned out to be 101%.

Regarding `O=C(Nc1ccc(F)cc1)c1ccc(NS(=O)(=O)Cc2ccccc2[N+](=O)[O-])cc1` [CBK050405], the viability at 28.5 h, 10 µM amounted to 93%.

Consider `O=C(Nc1ccccc1)O[C@@H]1CO[C@H]2[C@@H]1OC[C@@H]2Nc1nccc(-c2cccs2)n1` [CBK289513], for which the viability at 28.5 h, 10 µM was determined as 97.8%.

As to `CC(C)(C)OC(=O)N1CCCC(NC(CO)c2ccco2)CC1` (stereo not shown) [CBK304049], the viability at 28.5 h, 10 µM was 101%.

For the compound `Fc1ccc(CN(Cc2ccsc2)[C@@H]2COC[C@H]2c2ccc(F)cc2)cc1` [CBK286486], the viability at 28.5 h, 10 µM was 92.8%.

On to `COc1cccc(CNC(=O)C2CCN(c3nc4c(-c5cccc(C)c5)csc4c(=O)[nH]3)CC2)c1` [CBK215603], for which the viability at 28.5 h, 10 µM is 84.9%.

As to `Cc1ccc(C(=O)n2c(=S)nc3ccccn32)cc1` [CBK025729], the viability at 28.5 h, 10 µM was determined as 91.9%.

In the case of `CCOC(=O)C(C(=O)OCC)(N1CCOCC1)N1CCOCC1` [CBK261176], the viability at 28.5 h, 10 µM stood at 112%.

`CCCCN(CCCC)c1nccnc1Cl` [CBK001576]: the viability at 28.5 h, 10 µM stood at 94.7%.

Turning to `COc1ccc2[nH]c(-c3cncn3CCCC(C)(C)CO)cc2c1` [CBK281778], the viability at 28.5 h, 10 µM stood at 90.9%.

As for `Cc1cc(NC(=O)C(C)N2CCN(S(=O)(=O)c3ccc(C4CCCCC4)cc3)CC2)on1` (stereo not shown) [CBK295639], the viability at 28.5 h, 10 µM came to 101%.

Take `CCOc1cc(/C=C/c2nc(O)c([N+](=O)[O-])c(=O)[nH]2)ccc1OCC(N)=O` [CBK267337]: the viability at 28.5 h, 10 µM amounted to 96%.

In the case of `Cc1ncc(CO)c(CN)c1O` [CBK278211C], the viability at 28.5 h, 10 µM is 86.8%.

`O=C1S/C(=C\c2ccc(O)c([N+](=O)[O-])c2)C(=O)N1Cc1ccc(F)cc1` [CBK102928]: the viability at 28.5 h, 10 µM is 94.9%.

Turning to `C[C@]12CN(CCc3ccccc3)C[C@H]1NC(=O)c1ccccc1C2=O` [CBK284704], the viability at 28.5 h, 10 µM was 90.3%.

For `Cc1c(Cl)cccc1S(=O)(=O)Nc1cccc(C(=O)Nc2ccc(F)cc2)c1` [CBK038983], the viability at 28.5 h, 10 µM came to 99.3%.

As for `C/N=C1/SC(CC(=O)Nc2cccc(C(=O)O)c2)C(=O)N1C` (stereo not shown) [CBK265581], the viability at 28.5 h, 10 µM was 99.8%.

`O=C(Cn1c([C@@H]2CCCO2)cc2cccnc21)N1CCCCC1` [CBK282286]: the viability at 28.5 h, 10 µM turned out to be 90.3%.

As for `Cc1nc(S(=O)(=O)Cc2nccn2C)n(CC2CCCO2)c1C` (stereo not shown) [CBK304012], the viability at 28.5 h, 10 µM was determined as 87%.

As for `CCCc1oc(C(=O)O)cc1CN1CCCCC1` [CBK267973C], the viability at 28.5 h, 10 µM came to 99%.

As for `CS(=O)(=O)N1CC2(CCN(Cc3ccc(OC(F)(F)F)cc3)CC2)c2ccccc21` [CBK126668], the viability at 28.5 h, 10 µM is 99.4%.

On to `CC1CCN(S(=O)(=O)c2cccc(C(=O)NNC(=O)c3ccco3)c2)CC1` [CBK266796], for which the viability at 28.5 h, 10 µM stood at 92.2%.

In the case of `Fc1ccc(CCNc2ccc3nncn3n2)cc1` [CBK287909], the viability at 28.5 h, 10 µM amounted to 88.2%.

In the case of `COc1ccc(C(=O)Nc2ccc(N3CCNCC3)nc2)cc1` [CBK029434T], the viability at 28.5 h, 10 µM was found to be 111%.

Take `Cc1nnc(SCc2ccc(CSc3nnc(C)n3N)cc2)n1N` [CBK265561]: the viability at 28.5 h, 10 µM was found to be 106%.

In the case of `CCCS(=O)(=O)n1ccn(-c2ccc(Cl)c(Cl)c2)c1=O` [CBK106667], the viability at 28.5 h, 10 µM worked out at 110%.

As to `FC(F)(F)c1[nH]c2ncccc2c1CN1CCN2CCCCC2C1` (stereo not shown) [CBK285355], the viability at 28.5 h, 10 µM turned out to be 80.9%.

Consider `CC(=O)NCCSc1cncc(NC(C)C)n1` [CBK105291], for which the viability at 28.5 h, 10 µM worked out at 84.9%.

On to `Nc1ccn([C@@H]2O[C@H](CO)[C@H](O)C2O)c(=S)n1` (stereo partly shown) [CBK201293], for which the viability at 28.5 h, 10 µM was determined as 90.9%.

On to `CNC(=O)C1(Cc2cccc(-c3cccs3)c2)CCN(C(=O)CCc2ccccc2)CC1` [CBK285913], for which the viability at 28.5 h, 10 µM was found to be 90.4%.

For the compound `CCC(CN(C)C)C(=O)c1ccccc1` (stereo not shown) [CBK015409C], the viability at 28.5 h, 10 µM stood at 95.1%.

On to `CCOC(=O)C1CCN(S(=O)(=O)c2ccccc2)CC1` [CBK051091], for which the viability at 28.5 h, 10 µM came out at 107%.

With `Cc1nc2c(C)cccc2cc1C(=O)NCCCc1ccccn1` [CBK282148], the viability at 28.5 h, 10 µM turned out to be 82.8%.

Regarding `COC(=O)c1nn(C(=O)N(C)C)c(C)c1Br` [CBK005077], the viability at 28.5 h, 10 µM was 88.5%.

Consider `O=C1C2CCCCC2C(=O)N1c1ccc(Oc2ccc(Br)cc2)cc1` (stereo not shown) [CBK263531], for which the viability at 28.5 h, 10 µM is 116%.

Regarding `Cc1sc(NC(=O)c2ccccc2)c(C(Nc2ccccn2)c2ccc(F)cc2)c1C` (stereo not shown) [CBK296957], the viability at 28.5 h, 10 µM was found to be 89.7%.

Take `Cc1ccc(C2=NN(C(=N)SC3CC(=O)N(c4ccc(C(=O)O)cc4)C3=O)C(c3ccc(Br)cc3)C2)cc1` (stereo not shown) [CBK263497]: the viability at 28.5 h, 10 µM worked out at 112%.

Take `CCNC(=O)C1(Cc2ccccc2-c2cccnc2)CCOCC1` [CBK285218]: the viability at 28.5 h, 10 µM is 103%.

In the case of `COCCCn1c(=O)[nH]c2ncc(-c3ccc(C(=O)N4CCOCC4)cc3)nc21` [CBK064366], the viability at 28.5 h, 10 µM turned out to be 97.8%.

Regarding `CN(C)C1=NC(N(C)C)=NP(N(C)C)(N(C)C)=N1` [CBK261057], the viability at 28.5 h, 10 µM is 91.8%.

As to `COc1ccc(Cl)cc1NS(=O)(=O)N(C)C` [CBK025794], the viability at 28.5 h, 10 µM stood at 90.6%.
